Measured values from US11248016B2, “Glycolipids and pharmaceutical compositions thereof for use in therapy” (THE UNIVERSITY OF NOTTINGHAM, priority 2014, dated 2022).

What was measured:
[1] = system: primary canine histocytic sarcoma tumour cells; assay: Primary canine tumour cell experiments; format: cell-based, dog; conditions: single dose Cisplatin (10 μM), 6 days
Experimental: Cells were cultured for 6 days with a single dose treatment of Cisplatin™ (10 μM) or a combination of Cisplatin™ plus a compound of Formula II (active). Images were taken after 6 days treatment and are representative of three independently treated wells. Each image (40× magnification) represents the majority of the well area and is of an equivalent area in each photograph.
Known inhibitors of protein synthesis such as hippuristanol have proven potent anti-cancer properties when used in combination with chemotherapeutic agents such as Cisplatin™ or Doxorubicin™. However hippuristanol is naturally found in coral to is scarce and expensive to obtain, furthermore it is very difficult and expensive to synthesise. […] In particular this combination has a potent effect at slowing proliferation or killing cancer cells. Slow growing and difficult to treat tumour cell types such as A549 lung cancer cells, SH-SY5Y neuroblastoma or SKOV-3 cancer cells are all sensitised by exposure to Formula II to very low doses of Cisplatin™ (FIGS. 4d, 4e, 4f and 7)—a complete kill can be achieved in both A549 and SH-SY5Y cells after a single dose treatment with g quantities of a compound of Formula II in combination with 1 μM or 2.5 μM treatments of Cisplatin™. […]

[2] = system: SKOV3 ovarian cancer cells; assay: Cell proliferation, SKOV3; format: cell-based; conditions: 96 hours, Cisplatin alone; FIG. 4f
Experimental: Growth of SKOV3 cell lines were slowed by the treatment with a compound of Formula II at higher doses. Experiment represents 6 biological repetitions, Error=S.E.M.
Cisplatin™ resistant SKOV-3 ovarian cancer cells were sensitised to treatment with a compound of Formula II in combination with 2.5 μM Cisplatin™ (p=0.003) (right hand bar in the figure), no effect is observed from treatment with equivalent levels of a compound of Formula II alone (left hand bar in the figure) or Cisplatin™ alone.
(§1) Prior to treatment cells were cultured to an appropriate confluency in 96 well tissue culture plates (Fisher). Cells remained either supplemented with fresh media or treated with fresh media containing active or an equivalent volume of DMSO (vehicle control). Where used, Cisplatin™ was diluted to a stock concentration in Dimethylformamide (DMF), then handled as per the manufacturer's instructions. To determine relative cell viability, reagents WST-1 (Roche) or MTT (Sigma) were used as per the manufacturer's instructions and absorbance at 450 nm measured using a Victor plate reader (Perkin Elmer).

NLGN2 5′UTR = assay: NLGN translation reporter assay, neuroligin 2; format: cell-based, human; conditions: equivalent treatment; FIG. 5 and FIG. 10
Experimental: (§2) The mechanism of action and level of activity of Formula II are consistent with and comparative to a proven translational inhibitor extracted from a rare coral species (Hippuristanol—a proven inhibitor of eIf4A). In this experiment 1 μM of Hippuristanol and 1.3 μM of Formula I was used
(§3) FIG. 10—Compound 46, NLGN Translation reporter assay.
Treatment with the compound of Formula II (and compound 46) (FIG. 5 and FIG. 10) selectively decrease the firefly luciferase signal from a reporter construct containing the NLGN1 5′UTR upstream of a firefly luciferase gene. The translation of luciferase reporters downstream of the NLGN1 5′UTR has been proven to be dependent on the activity of the translation initiation complex eIF4F (Gkogkas et al Nature 2013, 493:371-7)—a complex containing the helicase eIF4A. […]
(§4) Cells were transfected using FuGene 6 (Roche) following the manufacturer's instructions. The activities of firefly and renilla luciferase in lysates prepared from transfected cells were measured using a commercially available Luciferase reporter assay system (Promega) and light emission was measured over a 10 sec interval using a TECAN luminometer. […]

[3] = system: A549 lung carcinoma cells; assay: Cell proliferation, A549 (WST-1 / MTT); format: cell-based; conditions: for sensitisation of A549 cells to low dose cisplatin: range of doses with range of doses of Cisplatin, FIG. 14; for sensitisation of A549 cells to low dose cisplatin / growth of A549 cells: 96 hrs; for growth of A549 cells: range of doses, dose dependant manner, FIG. 13
Experimental: Cisplatin™ resistant A549 lung cancer cells were sensitised to treatment with a compound of Formula II in combination with 1 μM Cisplatin™—a complete kill is achieved at higher doses of a compound of Formula II.
Cells were treated with a range of doses of active for either 48 or 96 hrs. Each data point is representaive of at least 4 biological repetitions.
Cells were treated with either 2 μM Cisplatin™ alone, c. 1 μg active alone or c. 1 μg active in combination with 2 μM Cisplatin™. A WST-1 cell proliferation assay was performed 96 hrs after treatment. Experiment represents 4 independent biological repetitions.
A WST-1 cell proliferation assay was performed 72 hrs after treatment. Experiment represents 4 independent biological repetitions.
Cells were treated with either 2 μM or 10 μM Cisplatin™ alone, or 10 μg synthetic molecule Formula II in combination with 2 μM Cisplatin™. A WST-1 cell proliferation assay was performed 72 hrs after treatment. Experiment represents 4 independent biological repetitions. A 5-fold increase in the efficacy of Cisplatin™ is observed when treated in combination with the synthetic Formula II.
Cells were treated with either 2 μM, 5 μM or 10 μM Cisplatin™ alone, 50 μg synthetic acetyl derivative molecule or 30 μg in combination with 2 μM Cisplatin™. A WST-1 cell proliferation assay was performed 72 hrs after treatment. Experiment represents four independent biological repetitions. No effect was detected after treatment with 50 μg synthetic acetyl derivative, however an 8-fold increase in the efficacy of Cisplatin™ is observed when treated in combination with 30 μg synthetic acetyl derivative and […] Cisplatin™.
FIG. 11—Natural molecule plus cisplatin compared to Hippuristanol plus cisplatin. […] The ratio between anti-proliferative activity to chemo sensitizing activity is also equivalent.
FIG. 13—Dose curves of compounds 46, 99 and 123. […] Cells were treated with a range of doses of active for 96 hrs. Each data point is representative of at least 4 biological repetitions and error=s.e.m).
FIG. 14—Cisplatin™ combination experiments—Compounds 46, 99 and 123. […] Cells were treated with a range of doses of active in combination with a range of doses of Cisplatin™ for 96 hrs. Each data point is representative of at least 4 biological repetitions and error=s.e.m).
as §1

NLGN1 5′UTR = assay: NLGN translation reporter assay, neuroligin 1; format: cell-based, human; conditions: FIG. 5: 1 μM Hippuristanol, 1.3 μM compound; FIG. 10: compound 46
Experimental: as §2, §3
Direct evidence is provided that inhibiting eIF4A represents a new route to treating ASD based on the data presented by Gkogkas et al. Nature 2013, 493:371-7.
Treatment with the compound of Formula II (and compound 46) (FIG. 5 and FIG. 10) selectively decrease the firefly luciferase signal from a reporter construct containing the NLGN1 5′UTR upstream of a firefly luciferase gene. The translation of luciferase reporters downstream of the NLGN1 5′UTR has been proven to be dependent on the activity of the translation initiation complex eIF4F (Gkogkas et al Nature 2013, 493:371-7)—a complex containing the helicase eIF4A. Equivalent treatment had little effect on the signal generated from either a co-transfected renilla luciferase reporter control or cells transfected with an equivalent construct containing the NLGN2 5′UTR upstream of a firefly luciferase gene (FIG. 5 and FIG. 10).
Experiments conducted using Firefly luciferase reporter plasmids containing the 5′ untranslated regions (UTRs) of the genes amyloid precursor protein (APP), thioredoxin (TXN) were conducted with reagents and materials described by Bottley et al, 2010. Experiments conducted using Firefly luciferase reporter plasmids containing the 5′ UTRs of the genes EGFR, BACE1 and Actin were conducted with reagents and materials described by Webb, 2012 (http://etheses.nottingham.ac.uk/2724/). […]
as §4

three Gag isoforms = conditions: increasing amounts, dose-response; cited from earlier work
[4] = system: firefly luciferase translation reporter; assay: Firefly luciferase translation reporter assay; format: cell-based, human; conditions: Hippuristanol (1 μM) alone, 4 hrs; FIG. 3c
Excerpt: Graphs represent 4 biological repetitions per treatment—2 independent treatments of a compound of Formula II.
Graphs represent 4 biological repetitions per treatment. […] No difference is observed between Hippuristanol and Hippuristanol plus a compound of Formula II.
The degree of translation inhibition is shown to be equivalent to that of a known inhibitor of translation, hippuristanol (FIGS. 3b and 5). Comparative structured 5′UTR firefly luciferase reporter experiments conducted using either hippuristanol or a compound of Formula II show the inhibition of reporter levels is equivalent.
Cells were transfected using FuGene 6 (Roche) following the manufacturer's instructions. The activities of firefly and renilla luciferase in lysates prepared from transfected cells were measured using a commercially available Luciferase reporter assay system (Promega) and light emission was measured over a 10 sec interval using a TECAN luminometer. For each experiment described, data was obtained from a minimum of at least 3 biological repetitions per treatment.

HCMV = conditions: cited from earlier work

Compound: N.N.[Cl][Pt][Cl] [Cisplatin, cis-diamminedichloroplatinum(II), reference compound]
- canine tumour cells after Cisplatin only [1]: many cancer cells remain
- effect on SKOV-3 cells, Cisplatin alone [2]: no effect

Compound: CC/C=C\C/C=C\C/C=C\CCCCCCCC(=O)OCC(COC(=O)CCCCCCC/C=C\C/C=C\C/C=C\CC)CO[C@@H]1O[C@H](CO)[C@H](O)[C@H](O)[C@H]1O [Compound 46]
- signal of NLGN2 5′UTR firefly luciferase reporter (NLGN2 5′UTR): little effect
- sensitisation of A549 cells to low dose cisplatin [3]: sensitizes
- growth of A549 cells [3]: inhibits the growth
- translation of NLGN1 5′UTR firefly luciferase reporter relative to neuroligin 2 (NLGN1 5′UTR): selectively inhibits the translation

Compound: CC/C=C\C/C=C\C/C=C\CCCCCCCC(=O)OCC(COC(=O)CCCCCCC/C=C\C/C=C\C/C=C\CC)CO[C@@H]1O[C@H](CO)[C@@H](O)[C@H](O)[C@H]1O [Compound 99]
- sensitisation of A549 cells to low dose cisplatin [3]: sensitizes
- growth of A549 cells [3]: inhibits the growth

Compound: CC/C=C\C/C=C\C/C=C\CCCCCCCC(=O)OC[C@H](CO[C@H]1O[C@H](CO)[C@@H](O)[C@H](O)[C@H]1O)OC(=O)CCCCCCC/C=C\C/C=C\C/C=C\CC [Compound 123]
- sensitisation of A549 cells to low dose cisplatin [3]: sensitizes
- growth of A549 cells [3]: inhibits the growth

Compound: C[C@H]1C[C@@]2(O[C@H]3C[C@H]4[C@@H]5CC[C@H]6C[C@H](O)CC[C@]6(C)[C@H]5[C@@H](O)C[C@]4(C)[C@H]3[C@@]2(C)O)OC1(C)C [Hippuristanol, reference compound]
- translation of the three Gag isoforms (three Gag isoforms): inhibits the translation of the three Gag isoforms
- anti-proliferative activity on A549 cells ([3]; alone, FIG. 11): anti-proliferative
- translation of NLGN1 5′UTR firefly luciferase reporter relative to neuroligin 2 (NLGN1 5′UTR): selective inhibition
- inhibition of translation reporter [4]: significant inhibition

Compound: CC(/C=C/C(C)=C/[C@@H]1Cc2nc(cs2)[C@@H](C)C[C@@H](N)CC(=O)O[C@@H](C)C/C(C)=C/C=C\C(=O)O1)=C\CN(C)C [Pateamine A]
- replication of HCMV (HCMV): inhibits the replication of HCMV

Compound: CC/C=C\C/C=C\C/C=C\CCCCCCCC(=O)OC[C@H](COC1OC(COC(C)=O)C(OC(C)=O)C(OC(C)=O)C1OC(C)=O)OC(=O)CCCCCCC/C=C\C/C=C\C/C=C\CC (some centres unmarked) [acetyl derivative of Formula II]
- increase in the efficacy of Cisplatin ([3]; 30 μg plus 2 μM Cisplatin, WST-1, 72 hrs, FIG. 9c): 8 fold
- effect on A549 cells, compound alone ([3]; 50 μg alone, WST-1, 72 hrs, FIG. 9c): No effect
